Results: patent publication US20240360114A1 (SIRONAX LTD., priority 2021, published 2024)

System: HT-1080 cells
Test: HT-1080 cell viability assay (ferroptosis induced by RSL3, Cell Titer-Glo)
Type: cell-based
Settings: Homo sapiens, ferroptosis inducer RSL3, 20 hours, ferroptosis inhibitory activity
Outline: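 EC50 fitted by sigmoidal dose-response regression on luminescent viability data normalized to untreated cells. Compounds ran as a 10-point, 3-fold series from 1.1 μM alongside RSL3 for 20 hours, after overnight seeding.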

SMILES | EC50 (HT-1080, 20 h, Table 2) | other results
[2H]C1(Nc2ccc(N3C[C@@H](C)O[C@@H](C)C3)nc2C)CC2(CC(N)C2)C1 (stereo partly drawn) [Compound 645] |  | EC50 (HT-1080, 20 h, Table 3): 0.1 to 100 nM
CC1(C)CCC(c2ccc(NCCN3CCCC3=O)cc2)CC1 [Compound 104, 1-(2-((4-(4,4-dimethylcyclohexyl)phenyl)amino)ethyl) pyrrolidin-2-one] | 100 to 1000 nM | 
CC(C)(C)c1ccc(NC2CCN(C(N)=O)CC2)cc1 [Compound 178, 4-((4-(tert-butyl)phenyl)amino)piperidine-1-carboxamide] |  | EC50 (Table 2): 1000 to 10000 nM
NC1CC2(C1)CC(Nc1ccc3cc(N4CCOCC4)ccc3c1)C2 (stereo not drawn) [Compound 614, N2-(6-morpholinonaphthalen-2-yl)spiro[3.3]heptane-2,6-diamine] |  | EC50 (HT-1080, 20 h, Table 3): 0.1 to 100 nM
NC1CCC(Nc2ccc3cc(N4CCC(C(F)(F)F)CC4)ccc3c2)CC1 (stereo not drawn) [Compound 561, N1-(6-(4-(trifluoromethyl)piperidin-1-yl)naphthalen-2-yl)cyclohexane-1,4-diamine] |  | EC50 (Table 2): 0.1 to 100 nM
CNC1CC2(C1)CC(Nc1ccc(N3C[C@@H](C)O[C@@H](C)C3)nc1C)C2 (stereo partly drawn) [Compound 605, N^2-(6-((2R,6S)-2,6-dimethylmorpholino)-2-methylpyridin-3-yl)-N^6-methylspiro [3.3]heptane-2,6-diamine] |  | EC50 (HT-1080, 20 h, Table 3): 0.1 to 100 nM
Cc1nc(N2C[C@@H](C)O[C@@H](C)C2)ccc1NC1C2CC3CC1CC(CNCCO)(C3)C2 (stereo partly drawn) [Compound 585] |  | EC50 (HT-1080, 20 h, Table 3): 0.1 to 100 nM
FC(F)(F)C1CCN(c2ccc(NC3CCNCC3)cc2)CC1 [Compound 20, N-(4-(4-(trifluoromethyl)piperidin-1-yl)phenyl)piperidin-4-amine] |  | EC50 (Table 2): 0.1 to 100 nM
CC1CN(c2ccc3cc(NC4CC5(CC(O)C5)C4)ccc3c2)CC(C)N1CC(F)(F)F (stereo not drawn) [Compound 610] |  | EC50 (HT-1080, 20 h, Table 3): 0.1 to 100 nM
CC(C)(C)c1ccc(NC2CCC(N)CC2)c(F)c1 (stereo not drawn) [Compound 190, N1-(4-(tert-butyl)-2-fluorophenyl)cyclohexane-1,4-diamine] | 100 to 1000 nM | 
CCCCN(CCCC)CCNc1ccc(C2CCCCC2)cc1 [Compound 173, N1,N1-dibutyl-N2-(4-cyclohexylphenyl)ethane-1,2-diamine] |  | EC50 (Table 2): 100 to 1000 nM
CC(C)(C)c1cccc(NC2CCC(N)CC2)c1 (single isomer, unassigned) [Compound 153A, N1-(3-(tert-butyl)phenyl)cyclohexane-1,4-diamine] | 100 to 1000 nM | 
CC1(C)CC(C)(C)c2cc(NC3CCC(N)CC3)ccc21 (stereo not drawn) [Compound 325A, N1-(1,1,3,3-tetramethyl-2,3-dihydro-1H-inden-5-yl)cyclohexane-1,4-diamine] | 0.1 to 100 nM | 
CC1(C)CCC(c2ccc(NC3CCC(NC(=O)[C@H]4CNC(=O)N4)C3)cc2)CC1 (mixture of isomers) [Compound 155] | 0.1 to 100 nM | 
Cc1cc(N2CCC(C(F)(F)F)CC2)c(F)cc1NC1CCC(N)CC1 (stereo not drawn) [Compound 58, N1-(5-fluoro-2-methyl-4-(4-(trifluoromethyl)piperidin-1-yl)phenyl)cyclohexane-1,4-diamine] | 0.1 to 100 nM | 
NC1C[C@@H]2CC(Nc3ccc(N4CCC(C(F)(F)F)CC4)cc3F)C[C@@H]2C1 (stereo partly drawn) [Compound 372, (3aR, 6aS)-N2-(2-fluoro-4-(4-(trifluoromethyl)piperidin-1-yl)phenyl)octahydropentalene-2,5-di amine] | 0.1 to 100 nM | 
CC(C)C1CCN(c2ncc(NC3CC4(CC(NCCF)C4)C3)cn2)CC1 (stereo not drawn) [Compound 412, N2-(2-fluoroethyl)-N6-(2-(4-isopropylpiperidin-1-yl)pyrimidin-5-yl)spiro[3.3]heptane-2,6-diamine] | 0.1 to 100 nM | 
CCN1C(C)CN(c2ccc(NC[C@H]3CC[C@H](N)CC3)cc2)CC1C (stereo partly drawn) [Compound 532, N-(((1r,4r)-4-aminocyclohexyl)methyl)-4-(4-ethyl-3,5-dimethylpiperazin-1-yl)aniline] | 100 to 1000 nM | 
Cc1nc(N2CCC(N3C[C@@H](C)O[C@@H](C)C3)CC2)ccc1NC1CC2(CC(N)C2)C1 (stereo partly drawn) [Compound 537, N2-(6-(4-((2S,6R)-2,6-dimethylmorpholino)piperidin-1-yl)-2-methylpyridin-3-yl)spiro[3.3]heptane-2,6-diamine] | 100 to 1000 nM | 
CCCCCCc1cc(NC2CCC(N)CC2)ccc1C(C)(C)C (stereo not drawn) [Compound 253A, N1-(4-(tert-butyl)-3-hexylphenyl)cyclohexane-1,4-diamine] | 0.1 to 100 nM | 
NC1CC(Nc2ccc3cc(N4CCN(CC(F)(F)F)CC4)ccc3c2)C1 (stereo not drawn) [Compound 593, N^1-(6-(4-(2,2,2-trifluoroethyl)piperazin-1-yl)naphthalen-2-yl)cyclobutane-1,3-diamine] |  | EC50 (HT-1080, 20 h, Table 3): 0.1 to 100 nM
CC(C)(C)c1ccc(NC2CCCNC2)cc1 (stereo not drawn) [Compound 150, N-(4-(tert-butyl)phenyl)piperidin-3-amine] | 100 to 1000 nM | 
Cc1ccc(NC[C@H]2CC[C@H](N)CC2)cc1C [Compound 316, N-(((1r,4r)-4-aminocyclohexyl)methyl)-3,4-dimethylaniline] | 0.1 to 100 nM | 
CC1(C)CCC(c2ccc(NC3CCC(O)CC3)cc2)CC1 (single isomer, unassigned) [Compound 205A, 4-((4-(4,4-dimethylcyclohexyl)phenyl)amino)cyclohexan-1-ol] | 0.1 to 100 nM | 
CC1(C)CCC(c2ccc(NC3CCC(O)C3)cc2)CC1 (stereo not drawn) [Compound 151] | 0.1 to 100 nM | 

Continued, in another order:

EC50 (HT-1080, 20 h, Table 2) | SMILES | other results
0.1 to 100 nM | CC(C)C1CCN(c2ncc(NC3CC4(CC(N)C4)C3)cn2)CC1 (stereo not drawn) [Compound 358, N2-(2-(4-isopropylpiperidin-1-yl)pyrimidin-5-yl)spiro[3.3]heptane-2,6-diamine] | 
0.1 to 100 nM | CC1CN(c2ccc(NC3C4CC5CC3CC(N)(C5)C4)cc2)CC(C)O1 (stereo not drawn) [Compound 421A, N^4-(4-(2,6-dimethylmorpholino)phenyl)adamantane-1,4-diamine] | 
0.1 to 100 nM | CC1CN(c2ncc3cc(NC4CC5(CC(N)C5)C4)ccc3n2)CC(C)O1 (stereo not drawn) [Compound 571, N^2-(2-(2,6-dimethylmorpholino)quinazolin-6-yl)spiro[3.3]heptane-2,6-diamine] | 
0.1 to 100 nM | CCC(C)(C)c1ccc(NC[C@H]2CC[C@H](N)CC2)cc1 [Compound 342, N-(((1r,4r)-4-aminocyclohexyl)methyl)-4-(tert-pentyl)aniline] | 
0.1 to 100 nM | CC1(C)CCC(c2ccc(NC3CCC(CNC(=O)[C@H]4CC(=O)NC(=O)N4)CC3)cc2)CC1 (single isomer, unassigned) [Compound 148A] | 
0.1 to 100 nM | N[C@H]1CC[C@H](CNc2ccc(C3CCN(CC(F)(F)F)CC3)cc2)CC1 [Compound 559, N-(((1r, 4r)-4-aminocyclohexyl)methyl)-4-(1-(2,2,2-trifluoroethyl)piperidin-4-yl)aniline] | 
0.1 to 100 nM | O=C1CC(C(=O)NCC2CCC(Nc3ccc(N4CCC(C(F)(F)F)CC4)cc3)CC2)CN1 (stereo not drawn) [Compound 2, 5-oxo-N-((4-((4-(4-(trifluoromethyl)piperidin-1-yl)phenyl)amino)cyclohexyl)methyl)pyrrolidine-3-carboxamide] | 
0.1 to 100 nM | CCc1nc(N2C[C@@H](C)O[C@@H](C)C2)ccc1NC[C@H]1CC[C@H](N)CC1 [Compound 544, N-(((1r,4R)-4-aminocyclohexyl)methyl)-6-((2S,6R)-2,6-dimethylmorpholino)-2-ethylpyridin-3-amine] | 
0.1 to 100 nM | NC(=O)C1CCC(Nc2ccc3cc(N4CCC(C(F)(F)F)CC4)ccc3c2)CC1 (stereo not drawn) [Compound 563, 4-((6-(4-(trifluoromethyl)piperidin-1-yl)naphthalen-2-yl)amino)cyclohexane-1-carboxamide] | 
0.1 to 100 nM | NCC1CCC(Nc2ccc(N3CCC(C(F)(F)F)CC3)cc2)CC1 (stereo not drawn) [Compound 3, N-(4-(aminomethyl)cyclohexyl)-4-(4-(trifluoromethyl)piperidin-1-yl)aniline] | 
0.1 to 100 nM | CC1(C)CCC(c2ccc(NC3CCCC(CN)CC3)cc2)CC1 (stereo not drawn) [Compound 85, 4-(aminomethyl)-N-(4-(4,4-dimethylcyclohexyl)phenyl)cycloheptan-1-amine] | 
0.1 to 100 nM | N[C@H]1CC[C@H](CCNc2ccc(N3CCC(C(F)(F)F)CC3)cc2F)CC1 [Compound 394, N-(2-((1r, 4r)-4-aminocyclohexyl)ethyl)-2-fluoro-4-(4-(trifluoromethyl)piperidin-1-yl)aniline] | 
0.1 to 100 nM | CC(C)C1CCN(c2ncc(NCC[C@H]3CC[C@H](NC(N)=O)CC3)cn2)CC1 [Compound 429, 1-((1r,4r)-4-(2-((2-(4-isopropylpiperidin-1-yl)pyrimidin-5-yl)amino)ethyl)cyclohexyl)urea] | 
0.1 to 100 nM | CC(C)(C)c1ccc(NC[C@H]2CC[C@H](NCCO)CC2)cc1 [Compound 323, 2-(((1r,4r)-4-(((4-(tert-butyl)phenyl)amino)methyl)cyclohexyl)amino)ethan-1-ol] | 
0.1 to 100 nM | CC1(C)CCC(c2ccc(NCCN3CCCC3)cc2)CC1 [Compound 101, 4-(4,4-dimethylcyclohexyl)-N-(2-(pyrrolidin-1-yl)ethyl)aniline] | 
0.1 to 100 nM | Cc1nc(N2CCOC(C)C2)ccc1NC1C2CC3CC1CC(CN)(C3)C2 (stereo not drawn) [Compound 520, N-(5-(aminomethyl)adamantan-2-yl)-2-methyl-6-(2-methylmorpholino)pyridin-3-amine] | 
0.1 to 100 nM | CC(C)(C)c1ccc(NC2CCC(CCN)CC2)cc1 (single isomer, unassigned) [Compound 200A, N-(4-(2-aminoethyl)cyclohexyl)-4-(tert-butyl)aniline] | 
0.1 to 100 nM | Cc1c(NC[C@H]2CC[C@H](N)CC2)ccc(N2CC(C)OC(C)C2)c1C (stereo partly drawn) [Compound 452, N-(((1r,4r)-4-aminocyclohexyl)methyl)-4-(2,6-dimethylmorpholino)-2,3-dimethylaniline] | 
0.1 to 100 nM | CC(C)(C)c1ccc(NCC2CCC(N)C2)cc1 (stereo not drawn) [Compound 328, N-((3-aminocyclopentyl)methyl)-4-(tert-butyl)aniline] | 
0.1 to 100 nM | COC1(C(F)(F)F)CCN(c2ccc(NC[C@H]3CC[C@H](N)CC3)c(C)n2)CC1 [Compound 510, N-(((1r,4r)-4-aminocyclohexyl)methyl)-6-(4-methoxy-4-(trifluoromethyl)piperidin-1-yl)-2-methylpyridin-3-amine] | 
